Consider seven compounds from publication PMC6199744, “Development of Chemical Proteomics for the Folateome and Analysis of the Kinetoplastid Folateome” (ACS Infectious Diseases, 2018).

Like-named read-outs stand apart in the source and are kept apart here.

The target in assay [1] is T1, HeLa cell extract proteins (Homo sapiens, UniProt O95487).
T1 construct: endogenous in cells; host or cells: HeLa cell extract
T1 sequence (O95487 1-1268): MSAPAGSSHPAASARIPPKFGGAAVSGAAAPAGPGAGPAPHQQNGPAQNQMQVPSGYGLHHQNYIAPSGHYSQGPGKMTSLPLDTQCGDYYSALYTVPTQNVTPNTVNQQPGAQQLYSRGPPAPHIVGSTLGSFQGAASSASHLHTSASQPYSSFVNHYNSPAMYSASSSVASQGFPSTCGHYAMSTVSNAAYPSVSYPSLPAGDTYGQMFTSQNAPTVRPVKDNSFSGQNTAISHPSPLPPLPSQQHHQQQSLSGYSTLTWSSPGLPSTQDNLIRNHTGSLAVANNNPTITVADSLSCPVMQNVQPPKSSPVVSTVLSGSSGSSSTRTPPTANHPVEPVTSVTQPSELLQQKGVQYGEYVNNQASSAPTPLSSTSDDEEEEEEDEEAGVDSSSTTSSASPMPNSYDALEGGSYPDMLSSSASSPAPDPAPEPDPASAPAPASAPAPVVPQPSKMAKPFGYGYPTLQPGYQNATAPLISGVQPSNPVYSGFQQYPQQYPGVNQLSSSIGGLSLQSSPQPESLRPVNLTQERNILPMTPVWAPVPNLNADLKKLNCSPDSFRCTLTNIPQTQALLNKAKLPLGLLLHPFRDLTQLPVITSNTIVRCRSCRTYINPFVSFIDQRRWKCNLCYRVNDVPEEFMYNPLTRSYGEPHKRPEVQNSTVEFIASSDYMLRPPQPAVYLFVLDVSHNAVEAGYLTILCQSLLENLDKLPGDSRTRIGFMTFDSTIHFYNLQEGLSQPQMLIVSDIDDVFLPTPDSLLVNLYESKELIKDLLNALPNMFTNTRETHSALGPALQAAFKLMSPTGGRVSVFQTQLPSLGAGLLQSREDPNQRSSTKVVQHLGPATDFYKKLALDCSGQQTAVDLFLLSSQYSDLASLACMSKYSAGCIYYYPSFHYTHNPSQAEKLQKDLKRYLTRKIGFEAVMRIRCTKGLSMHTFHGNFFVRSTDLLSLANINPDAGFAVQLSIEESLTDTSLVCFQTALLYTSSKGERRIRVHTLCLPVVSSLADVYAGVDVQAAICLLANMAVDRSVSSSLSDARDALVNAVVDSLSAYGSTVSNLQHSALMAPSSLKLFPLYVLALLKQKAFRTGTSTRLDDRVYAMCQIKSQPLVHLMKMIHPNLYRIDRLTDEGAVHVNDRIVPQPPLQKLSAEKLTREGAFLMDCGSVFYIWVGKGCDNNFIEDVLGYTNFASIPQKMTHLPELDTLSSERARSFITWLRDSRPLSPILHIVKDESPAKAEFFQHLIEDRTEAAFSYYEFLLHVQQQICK
Type of assay: binding.

The target of assay [2] is T2, HeLa cell extract proteins (Homo sapiens, UniProt P22314).
T2 construct: endogenous in cells; host or cells: HeLa cell extract
T2 sequence (P22314 1-1058): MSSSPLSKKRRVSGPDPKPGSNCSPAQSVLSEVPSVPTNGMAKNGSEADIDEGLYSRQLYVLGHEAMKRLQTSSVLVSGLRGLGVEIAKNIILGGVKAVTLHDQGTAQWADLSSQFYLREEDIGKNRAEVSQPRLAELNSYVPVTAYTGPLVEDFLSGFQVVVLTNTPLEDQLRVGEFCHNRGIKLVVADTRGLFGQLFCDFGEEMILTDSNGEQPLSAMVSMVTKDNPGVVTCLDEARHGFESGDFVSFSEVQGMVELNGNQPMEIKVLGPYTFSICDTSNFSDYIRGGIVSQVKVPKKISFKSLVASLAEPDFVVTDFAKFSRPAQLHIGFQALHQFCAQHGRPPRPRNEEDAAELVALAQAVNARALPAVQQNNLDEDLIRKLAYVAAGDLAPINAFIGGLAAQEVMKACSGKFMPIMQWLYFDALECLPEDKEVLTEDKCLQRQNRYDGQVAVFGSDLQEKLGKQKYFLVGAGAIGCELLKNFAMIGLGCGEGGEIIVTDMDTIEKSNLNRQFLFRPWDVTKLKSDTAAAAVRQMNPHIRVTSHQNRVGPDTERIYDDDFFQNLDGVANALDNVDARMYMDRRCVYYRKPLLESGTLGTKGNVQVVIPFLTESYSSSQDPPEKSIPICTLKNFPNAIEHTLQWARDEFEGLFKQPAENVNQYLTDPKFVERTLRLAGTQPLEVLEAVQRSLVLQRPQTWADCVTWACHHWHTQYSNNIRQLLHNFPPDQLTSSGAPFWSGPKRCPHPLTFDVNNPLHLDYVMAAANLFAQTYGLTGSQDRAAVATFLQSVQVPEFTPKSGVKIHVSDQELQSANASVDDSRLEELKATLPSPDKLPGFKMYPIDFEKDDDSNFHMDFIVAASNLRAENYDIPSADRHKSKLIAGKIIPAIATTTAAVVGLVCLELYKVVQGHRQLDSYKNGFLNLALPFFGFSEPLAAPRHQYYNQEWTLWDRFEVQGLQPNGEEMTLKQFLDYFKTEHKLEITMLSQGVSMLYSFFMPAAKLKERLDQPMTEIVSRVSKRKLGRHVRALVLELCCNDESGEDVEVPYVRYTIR
Type of assay: binding.

As for `CCCCCCOc1cccc(Cc2cnc(N)nc2N)c1` [compound 2], the “fold changes relative to vehicle control” value in assay [1] (protein SEC24B, HeLa) is 1.15; in assay [2] (protein UBA1, HeLa), 1.62.

Regarding `NCCOCCOCC(=O)Nc1nc2ncc(CNc3ccc(C(=O)NC(CCC(=O)O)C(=O)O)cc3)nc2c(=O)[nH]1` (centres unmarked) [compound 6], the “fold changes relative to vehicle control” value in assay [1] (HeLa, captured protein SEC24B) was 0.94; in assay [2] (HeLa, protein UBA1), 1.15.

With `CCCCCCOc1ccc(Cc2cnc(N)nc2N)cc1` [compound 1], the “fold changes relative to vehicle control” value in assay [1] (protein SEC24B, HeLa) stood at 1.05; in assay [2] (protein UBA1, HeLa), 0.77.

As for `Nc1nc2c(c(=O)[nH]1)N(C=O)C(CNc1ccc(C(=O)N[C@@H](CCC(=O)O)C(=O)O)cc1)CN2` (some centres unmarked) [LEU, leucovorin], the “fold changes relative to vehicle control” value worked out at 1.06 in assay [1] (HeLa, captured protein SEC24B) and 1.05 in assay [2] (HeLa, protein UBA1).

Turning to `NCCCNc1ccc(C(=O)NC(CCC(=O)O)C(=O)O)cc1` (centres unmarked) [compound 7], the “fold changes relative to vehicle control” value in assay [1] (HeLa, captured protein SEC24B) is listed as 1.06; in assay [2] (HeLa, protein UBA1), 0.92.

With `Nc1nc2[nH]cc(CCc3ccc(C(=O)N[C@@H](CCC(=O)O)C(=O)O)cc3)c2c(=O)[nH]1` [PTX, pemetrexed], the “fold changes relative to vehicle control” value in assay [1] is reported as 0.94; in assay [2] it was 0.96.

In the case of `Nc1nc2cccc(-c3ccccc3)c2n1Cc1ccc(Cl)c(Cl)c1` [compound 3], the “fold changes relative to vehicle control” value in assay [1] (protein SEC24B, HeLa) came to 1.01; in assay [2] (protein UBA1, HeLa) it was 0.75.
